Results reported in patent US20250122190A1, “HALOGEN-SUBSTITUTED PYRIDAZINONE COMPOUND AND APPLICATION THEREOF” (MEDSHINE DISCOVERY INC., priority 2021, published 2025).
Where two headings read alike, the source gives them in different places.

Legend:
[1] = Rat group tissue distribution test; format: in vivo, SD male rats; conditions: intragastric, SD rats, n = 3; for concentration at 1 h / concentration at 4 h / concentration at 12 h: male, Sprague Dawley, rat, oral, read-out: Average drug concentration
From the text: In this study, SD male rats were selected as the test animals, and the LC/MS/MS method was used to quantitatively determine the drug concentration at different time points in the plasma, cerebrospinal fluid, brain, liver, and kidney of the test compounds administered orally to evaluate the tissue distribution of the test drugs in the rats.
Experimental materials: Sprague Dawley (SD) rats (male, 200-300 g, 7-10 weeks old, Beijing Vital River).
A clear solution or suspension of the test compounds was administered intragastrically into SD rats (fasted) (vehicle: 5% DMSO/10% Kolliphor® HS 15/85% water). […] The mixture was vortexed thoroughly and centrifuged at 3200 g, 4° C. for 10 minutes to obtain the plasma. The cerebrospinal fluid (about 0.02 mL) was collected. The brain, liver, and kidney were collected, rinsed with pre-cooled physiological saline, dried with paper, and then homogenated in a ratio of 1:4 (1 g of tissue: 4 mL of 15 mM phosphate-buffered physiological saline/MeOH (2:1)). The LC-MS/MS method was used to determine the drug concentration, and the Phoenix WinNonlin 6.3 pharmacokinetic software was used to calculate the relevant pharmacokinetic parameters by the non-compartmental model linear logarithmic trapezoidal method.

[2] = tested on: rat models of hypertensive renal disease; assay: Pharmacodynamic study in DOCA-NaCl induced hypertensive renal disease model; format: in vivo, male SD rats
From the text: PD and pharmacodynamic studies on the compounds of the present disclosure in male SD rat models of hypertension induced with deoxycorticosterone acetate-sodium chloride (DOCA-NaCl).
Prior to commencing the procedure, 7-8 weeks old male SD rats were allowed one week acclimatization. On the day of surgery, the table of the surgical area was disinfected with a disinfectant, and the rats were anesthetized with 2%-5% isoflurane and fixed on the table. The abdominal hair was removed and the surgical skin was disinfected. The skin and abdominal wall were cut open to expose the right kidney. The arteries and veins near the renal hilum were ligated. After it was confirmed that there were no bleeding points, the renal blood vessels and surrounding ligaments were bluntly separated and the right kidney was removed. After it was confirmed that there were no bleeding points, the abdominal wall muscle and skin were sutured. After the rats woke up, they were returned to the cage and observed. The rats were injected subcutaneously with meloxicam injection once a day for 3 consecutive days for pain relief.
One week after unilateral kidney removal, the animals were randomly divided into vehicle group, low dose group and high dose group according to body weight/blood pressure. The drinking water of animals in all groups was changed to an aqueous solution containing 1% sodium chloride+0.2% potassium chloride. […]

concentration at 1 h ([1]; Brain) | concentration at 4 h ([1]; Brain) | concentration at 12 h ([1]; Brain, 12 h) | concentration at 1 h ([1]; Kidney) | concentration at 4 h ([1]; Kidney) | concentration at 12 h ([1]; Kidney, 12 h) | concentration at 1 h ([1]; Liver) | concentration at 4 h ([1]; Liver) | concentration at 12 h ([1]; Liver, 12 h) | concentration at 1 h ([1]; Plasma) | concentration at 4 h ([1]; Plasma) | concentration at 12 h ([1]; Plasma, 12 h) | Average drug concentration ([1]; Brain, 12 h) | SMILES | urinary albumin level ([2]; 30 mg/kg and 60 mg/kg intragastrically once a day for 28 days, vs vehicle control group) | expression of urinary Rac1 ([2]; low and high dose, intragastrically once a day for 28 days, vs vehicle group)
139 nM | 197 nM | 86 nM | 1260 nM | 1470 nM | 590 nM | 2610 nM | 3360 nM | 945 nM | 536 nM | 716 nM | 272 nM |  | Nc1nc2c(c(Sc3ccc(F)cc3C(F)(F)F)n1)CCN(c1cn[nH]c(=O)c1Cl)C2 [Compound WX013] |  | 
 |  |  |  |  |  |  |  |  |  |  |  |  | O=c1[nH]ncc(N2CCc3c(ncnc3Sc3ccc(F)cc3C(F)(F)F)C2)c1Cl [Compound WX002] | significantly reduce | dose-dependently reduce
282 nM | 373 nM |  | 2630 nM | 3440 nM | 276 nM | 5120 nM | 5820 nM | 570 nM | 773 nM | 1080 nM | 82.7 nM | BQL | O=c1[nH]ncc(N2CCc3c(nc(CO)nc3Sc3ccc(F)cc3C(F)(F)F)C2)c1Cl [Compound WX012] |  | 
